Source: ChEMBL document CHEMBL6109065, “Synthesis, antibacterial and anticancer activity of azo-based and aminomethylene derivatives of cyclic β-keto sulfones” (Bioorg Med Chem Lett, 2025)
≈ marks a conversion by molar mass, not a printed value. Each block holds one compound with its values, some of them ahead of it.

What was measured:
Staphylococcus aureus = assay: Antibacterial activity against Staphylococcus aureus assessed as reduction in bacterial growth; type: functional
Escherichia coli = assay: Antibacterial activity against Escherichia coli assessed as reduction in bacterial growth; type: functional
Pseudomonas aeruginosa = assay: Antibacterial activity against Pseudomonas aeruginosa assessed as reduction in bacterial growth; type: functional
MDA-MB-231 [1] = assay: Cytotoxicity against human MDA-MB-231 cells assessed as inhibition of cell growth at 0.5 mM relative to control; type: functional
[2] = Cytotoxicity against MAEC cells assessed as inhibition of cell growth at 0.5 mM relative to control; type: toxicity, cell-based; settings: mouse
MDA-MB-231 [3] = assay: Cytotoxicity against human MDA-MB-231 cells assessed as inhibition of cell viability; type: functional, cell-based
[4] = Cytotoxicity against MAEC cells assessed as cell viability; type: toxicity, cell-based; settings: mouse

Structure (SMILES): CC1(C)CS(=O)(=O)/C(=C/NCc2ccccc2)C1=O
MIC (Staphylococcus aureus): 94 µM (≈ 26.3 µg/mL)
MIC (Escherichia coli): 750 µM (≈ 210 µg/mL)
MIC (Pseudomonas aeruginosa): 750 µM (≈ 210 µg/mL)
EC50 (MDA-MB-231 [3]): 283 µM
inhibition at 500 µM (MDA-MB-231 [1]): 88%
inhibition at 500 µM [2]: 10%

Structure (SMILES): Nc1cccc(S(N)(=O)=O)c1
MIC (Staphylococcus aureus): 375 µM (≈ 64.6 µg/mL)
MIC (Escherichia coli): 750 µM (≈ 129 µg/mL)
MIC (Pseudomonas aeruginosa): 750 µM (≈ 129 µg/mL)
inhibition at 500 µM (MDA-MB-231 [1]): 30%
EC50 [4]: 93 µM
inhibition at 500 µM [2]: 100%

Structure (SMILES): CC1(C)CS(=O)(=O)/C(=C/Nc2ccccc2)C1=O
MIC (Staphylococcus aureus): 94 µM (≈ 24.9 µg/mL)
MIC (Escherichia coli): 188 µM (≈ 49.9 µg/mL)
MIC (Pseudomonas aeruginosa): 375 µM (≈ 99.5 µg/mL)
inhibition at 500 µM (MDA-MB-231 [1]): 7%
inhibition at 500 µM [2]: 7%

Structure (SMILES): O=C1/C(=C\Nc2ccccc2)S(=O)(=O)CC12CC2
MIC (Staphylococcus aureus): > 750 µM
MIC (Escherichia coli): > 750 µM
MIC (Pseudomonas aeruginosa): 375 µM (≈ 98.7 µg/mL)
inhibition at 500 µM (MDA-MB-231 [1]): 19%
inhibition at 500 µM [2]: 6%

Structure (SMILES): O=C1/C(=C\NCc2ccccc2)S(=O)(=O)CC12CC2
MIC (Staphylococcus aureus): 750 µM (≈ 208 µg/mL)
MIC (Escherichia coli): 750 µM (≈ 208 µg/mL)
MIC (Pseudomonas aeruginosa): 750 µM (≈ 208 µg/mL)
EC50 (MDA-MB-231 [3]): 270 µM
inhibition at 500 µM (MDA-MB-231 [1]): 90%
inhibition at 500 µM [2]: 17%

Structure (SMILES): Nc1ccc(S(N)(=O)=O)cc1 [SULFANILAMIDE]
MIC (Staphylococcus aureus): 750 µM (≈ 129 µg/mL)
MIC (Escherichia coli): 375 µM (≈ 64.6 µg/mL)
MIC (Pseudomonas aeruginosa): 750 µM (≈ 129 µg/mL)
inhibition at 500 µM (MDA-MB-231 [1]): 57%
inhibition at 500 µM [2]: 6%

Structure (SMILES): CCC1(C)CCS(=O)(=O)/C(=N/Nc2ccc(S(N)(=O)=O)cc2)C1=O (stereo not given)
MIC (Staphylococcus aureus): 375 µM (≈ 140 µg/mL)
MIC (Escherichia coli): 750 µM (≈ 280 µg/mL)
MIC (Pseudomonas aeruginosa): 750 µM (≈ 280 µg/mL)
inhibition at 500 µM (MDA-MB-231 [1]): 57%
EC50 [4]: 78 µM
inhibition at 500 µM [2]: 100%

Second part, led by results:

MIC (Staphylococcus aureus): 188 µM (≈ 86.2 µg/mL)
MIC (Escherichia coli): 188 µM (≈ 86.2 µg/mL)
MIC (Pseudomonas aeruginosa): > 750 µM
Structure (SMILES): CC(C)(C)OC(=O)N1CC2(C1)CS(=O)(=O)/C(=N/Nc1cccc(S(N)(=O)=O)c1)C2=O
inhibition at 500 µM (MDA-MB-231 [1]): 63%
inhibition at 500 µM [2]: 6%

MIC (Staphylococcus aureus): 375 µM (≈ 182 µg/mL)
MIC (Escherichia coli): 750 µM (≈ 365 µg/mL)
MIC (Pseudomonas aeruginosa): > 750 µM
Structure (SMILES): CC(C)(C)OC(=O)N1CCC2(CC1)CS(=O)(=O)/C(=N/Nc1ccc(S(N)(=O)=O)cc1)C2=O
EC50 (MDA-MB-231 [3]): 249 µM
inhibition at 500 µM (MDA-MB-231 [1]): 93%
inhibition at 500 µM [2]: 11%

MIC (Staphylococcus aureus): 188 µM (≈ 64.6 µg/mL)
MIC (Escherichia coli): 94 µM (≈ 32.3 µg/mL)
MIC (Pseudomonas aeruginosa): > 750 µM
Structure (SMILES): NS(=O)(=O)c1ccc(N/N=C2\C(=O)C3(CC3)CS2(=O)=O)cc1
inhibition at 500 µM (MDA-MB-231 [1]): 4%
inhibition at 500 µM [2]: 1%

MIC (Staphylococcus aureus): 23 µM (≈ 10.5 µg/mL)
MIC (Escherichia coli): 188 µM (≈ 86.2 µg/mL)
MIC (Pseudomonas aeruginosa): 750 µM (≈ 344 µg/mL)
Structure (SMILES): CC(C)(C)OC(=O)N1CC2(C1)CS(=O)(=O)/C(=N/Nc1ccc(S(N)(=O)=O)cc1)C2=O
inhibition at 500 µM (MDA-MB-231 [1]): 21%
inhibition at 500 µM [2]: 20%

MIC (Staphylococcus aureus): > 750 µM
MIC (Escherichia coli): > 750 µM
MIC (Pseudomonas aeruginosa): 750 µM (≈ 230 µg/mL)
Structure (SMILES): Cc1ccc(N/N=C2\C(=O)C3(CCCC3)CS2(=O)=O)cc1
inhibition at 500 µM (MDA-MB-231 [1]): 66%
inhibition at 500 µM [2]: 26%

MIC (Staphylococcus aureus): 375 µM (≈ 182 µg/mL)
MIC (Escherichia coli): 188 µM (≈ 91.5 µg/mL)
MIC (Pseudomonas aeruginosa): > 750 µM
Structure (SMILES): CC(C)(C)OC(=O)N1CCC2(CC1)CS(=O)(=O)/C(=N/Nc1cccc(S(N)(=O)=O)c1)C2=O
inhibition at 500 µM (MDA-MB-231 [1]): 37%
inhibition at 500 µM [2]: 7%

MIC (Staphylococcus aureus): 23 µM (≈ 7.94 µg/mL)
MIC (Escherichia coli): 188 µM (≈ 64.9 µg/mL)
MIC (Pseudomonas aeruginosa): > 750 µM
Structure (SMILES): CC1(C)CS(=O)(=O)/C(=N/Nc2cccc(S(N)(=O)=O)c2)C1=O
inhibition at 500 µM (MDA-MB-231 [1]): 78%
inhibition at 500 µM [2]: 1%

MIC (Staphylococcus aureus): 94 µM (≈ 34.9 µg/mL)
MIC (Escherichia coli): 188 µM (≈ 69.8 µg/mL)
MIC (Pseudomonas aeruginosa): 750 µM (≈ 279 µg/mL)
Structure (SMILES): NS(=O)(=O)c1ccc(N/N=C2\C(=O)C3(CCCC3)CS2(=O)=O)cc1
inhibition at 500 µM (MDA-MB-231 [1]): 81%
inhibition at 500 µM [2]: 1%

MIC (Staphylococcus aureus): 188 µM (≈ 69.8 µg/mL)
MIC (Escherichia coli): 188 µM (≈ 69.8 µg/mL)
MIC (Pseudomonas aeruginosa): > 750 µM
Structure (SMILES): NS(=O)(=O)c1cccc(N/N=C2\C(=O)C3(CCCC3)CS2(=O)=O)c1
inhibition at 500 µM (MDA-MB-231 [1]): 21%
inhibition at 500 µM [2]: 10%

MIC (Staphylococcus aureus): 188 µM (≈ 64.9 µg/mL)
MIC (Escherichia coli): 188 µM (≈ 64.9 µg/mL)
MIC (Pseudomonas aeruginosa): 375 µM (≈ 130 µg/mL)
Structure (SMILES): CC1(C)CS(=O)(=O)/C(=N/Nc2ccc(S(N)(=O)=O)cc2)C1=O
inhibition at 500 µM (MDA-MB-231 [1]): 51%
inhibition at 500 µM [2]: 3%
